Experimental findings from patent US20140228248A1, “METHODS AND COMPOSITIONS FOR DETECTING INFECTIONS” (BIOMED VALLEY DISCOVERIES, INC., priority 2011, published 2014) are described below.

In one test the test system is DH5α cells. As to the kind of experiment: Detection of cells spiked into rat CSF / SOB mix (filter assay). The following applies: 10,000 cells, 50% CSF (rat) and 50% SOB, 1.76 μM, 5 hours or less. Format: cell-based, E. coli. As for the experimental part:
An experiment was also performed to determine whether a shorter incubation period is possible. 10,000 DH5α cells were added into 1 ml rat CSF. 1 ml of SOB media and 2 μl of 1.76 mM ^14C FIAU was added to the mixture to constitute a 1.76 μM solution. The mixture was incubated for 5 hours at 37° C. in an agitation incubator. After the incubation period, the mixture was passed through a 0.22 μm Millipore nitrocellulose filter. The filter was then washed with 40 ml of 1×PBS using a syringe. The CPM was determined using a scintillation counter. Thus, 10,000 cells after 5 hours or less of incubation in a mixture containing 50% CSF and 50% SOB were detectable.

The test system of another test is DH5α (E. coli) cells. Put plainly: Detection of cells spiked into human urine / SOB mix (filter assay). The test is classed as cell-based. The following applies: 10,000 DH5α cells, 50% urine and 50% SOB mix, 1.76 μM, 5 hours. As for the experimental part: In another set of experiments, 10,000 DH5α cells were added into 1 ml human urine. 1 ml of SOB media and 2 μl of 1.76 mM ^14C FIAU was added to the mixture to constitute a 1.76 μM solution. The mixture was incubated for 5 hours at 37° C. in an agitation incubator. After the incubation period, the mixture was passed through a 0.22 μm Millipore nitrocellulose filter. The filter was then washed with 40 ml of 1×PBS using a syringe. The CPM was determined using a scintillation counter. Thus, 10,000 DH5α (E. coli) cells were detectable in a 50% urine and 50% SOB mix in 5 hours.

A further test concerns DH5α E. coli. Put plainly: Live cell filter assay in culture media (Millipore NCM filter, scintillation counter). The test is classed as cell-based. The following applies: for cell based signal over background signal: 10,000 cells incubated for 8 hours, Millipore NCM filter. As for the experimental part: 10,000 cells were put into 2 ml of media (LB, SOB, SOC, DeTox™, or TB), and incubated for 8 hours at 37° C. and shaken at 250 rpm. The samples were then passed through the respective filters (Millipore and others) via a syringe, then the samples were washed with 40 ml of PBS via a syringe. The filter samples were counted using a scintillation counter.
Millipore NCM filters were also used in the live cell experiments. […] Moreover, LB and SOB media strongly potentiated the growth of the DH5α E. coli. The cell based signals are 42.78-fold and 82.63-fold, respectively, over background signal for these two media.
10,000, 50,000 or 100,000 DH5α cells were added into 1 ml SOB media, and 1 μl of 1.76 mM ^14C FIAU was added to the mixture to constitute a 1.76 μM solution. The mixture was incubated for 4 to 6 hours at 37° C. in an agitation incubator. After the incubation period, the mixture was passed through a 0.22 μm Millipore nitrocellulose filter. The filter was then washed with 40 ml of 1×PBS using a syringe. The CPM was determined using a scintillation counter.

In the case of `O=c1[nH][14c](=O)n([C@@H]2O[C@H](CO)[C@@H](O)[C@@H]2F)cc1I` [^14C-FIAU, ^14C-labeled 2′-fluoro-5-iodo-1-β-D-arabinofuranosyluracil], the detectability of cells result in the test on DH5α cells and in the test on DH5α (E. coli) cells was “detectable” each time. In addition, the signal versus background result in the test with DH5α E. coli (10,000 DH5α cells, 1 ml SOB, 1.76 μM (200 mCi/mmol), about 4 hours) was “signal above the background”.

Regarding `O=c1[nH]c(=O)n([C@@H]2O[C@H](CO)[C@@H](O)[C@@H]2F)cc1I` [FIAU, 2′-fluoro-5-iodo-1-β-D-arabinofuranosyluracil], the “cell based signal over background signal” value in the test on DH5α E. coli (LB media) came to 42.78 fold; in the test with DH5α E. coli (SOB media), 82.63 fold.
